In ChEMBL document CHEMBL3045977, “Antidiabetic and antioxidant activity of hydroxycinnamic acids from Calamintha Officinalis Moench” (2012):

Tests used:
Type in all cases: functional
[1] = tested on: Rattus norvegicus; experiment: Antidiabetic activity in alloxan-induced diabetic Rattus norvegicus albino Wistar (rat) model assessed as TBRAS level per gram of liver tissue at 10 mg/kg, po administered for 14 days measured after 14 days (reference value: 0.72 +/-0.12 uM/g)
[2] = tested on: Rattus norvegicus; experiment: Antidiabetic activity in alloxan-induced diabetic Rattus norvegicus albino Wistar (rat) model assessed as change in body weight at 10 mg/kg, po administered for 14 days measured on day 1 (reference value: 205.4 +/-2.68 g)
[3] = tested on: Rattus norvegicus; experiment: Antidiabetic activity in alloxan-induced diabetic Rattus norvegicus albino Wistar (rat) model assessed as reduction in HDL level at 10 mg/kg, po administered for 14 days measured on day 1 (reference value: 40.1 +/- 2.11 mg/dl)
[4] = tested on: Rattus norvegicus; experiment: Antidiabetic activity in alloxan-induced diabetic Rattus norvegicus albino Wistar (rat) model assessed as reduction in LDL level at 10 mg/kg, po administered for 14 days measured on day 1 (reference value: 52.4 +/- 2.32 mg/dl)
[5] = tested on: Rattus norvegicus; experiment: Antidiabetic activity in alloxan-induced diabetic Rattus norvegicus albino Wistar (rat) model assessed as reduction in HDL level at 10 mg/kg, po administered for 14 days measured on day 14 (reference value: 36.4 +/- 1.05 mg/dl)
[6] = tested on: Rattus norvegicus; experiment: Antidiabetic activity in alloxan-induced diabetic Rattus norvegicus albino Wistar (rat) model assessed as reduction in triglyceride level at 10 mg/kg, po administered for 14 days measured on day 14 (reference value: 210.8 +/- 1.25 mg/dl)
[7] = tested on: Rattus norvegicus; experiment: Antidiabetic activity in alloxan-induced diabetic Rattus norvegicus albino Wistar (rat) model assessed as reduction in total cholesterol level at 10 mg/kg, po administered for 14 days measured on day 1 (reference value: 98.6 +/- 0.51 mg/dl)
[8] = tested on: Rattus norvegicus; experiment: Antidiabetic activity in alloxan-induced diabetic Rattus norvegicus albino Wistar (rat) model assessed as reduction in blood glucose level at 10 mg/kg, po administered for 14 days measured on day 14 (reference value: 248.6 +/- 1.20 mg/dl)
[9] = tested on: Rattus norvegicus; experiment: Antidiabetic activity in alloxan-induced diabetic Rattus norvegicus albino Wistar (rat) model assessed as change in body weight at 10 mg/kg, po administered for 14 days measured on day 14 (reference value: 190.6 +/-1.78 g)
[10] = tested on: Rattus norvegicus; experiment: Antidiabetic activity in alloxan-induced diabetic Rattus norvegicus albino Wistar (rat) model assessed as reduction in VLDL level at 10 mg/kg, po administered for 14 days measured on day 14 (reference value: 29.9 +/- 0.83 mg/dl)
[11] = tested on: Rattus norvegicus; experiment: Antidiabetic activity in alloxan-induced diabetic Rattus norvegicus albino Wistar (rat) model assessed as reduction in blood glucose level at 10 mg/kg, po administered for 14 days measured on day 1 (reference value: 242.2 +/- 0.71 mg/dl)
[12] = tested on: Rattus norvegicus; experiment: Antidiabetic activity in alloxan-induced diabetic Rattus norvegicus albino Wistar (rat) model assessed as reduction in total cholesterol level at 10 mg/kg, po administered for 14 days measured on day 14 (reference value: 131.2 +/- 0.48 mg/dl)
[13] = tested on: Rattus norvegicus; experiment: Antidiabetic activity in alloxan-induced diabetic Rattus norvegicus albino Wistar (rat) model assessed as reduction in triglyceride level at 10 mg/kg, po administered for 14 days measured on day 1 (reference value: 158.9 +/- 1.23 mg/dl)
[14] = tested on: Rattus norvegicus; experiment: Antidiabetic activity in alloxan-induced diabetic Rattus norvegicus albino Wistar (rat) model assessed as reduction in LDL level at 10 mg/kg, po administered for 14 days measured on day 14 (reference value: 68.2 +/- 2.10 mg/dl)
[15] = tested on: Rattus norvegicus; experiment: Antidiabetic activity in alloxan-induced diabetic Rattus norvegicus albino Wistar (rat) model assessed as reduction in VLDL level at 10 mg/kg, po administered for 14 days measured on day 1 (reference value: 14.4 +/- 1.04 mg/dl)

O=C(O)/C=C/c1ccc(O)c(O)c1 [CAFFEIC ACID]
Activity [1]: 0.56 µM
Activity [2]: 209.3 g
Activity [3]: 38.2 mg/dL
Activity [4]: 53.7 mg/dL
Activity [5]: 41.4 mg/dL
Activity [6]: 103.2 mg/dL
Activity [7]: 101.2 mg/dL
Activity [8]: 105.4 mg/dL
Activity [9]: 246 g
Activity [10]: 20.9 mg/dL
Activity [11]: 239 mg/dL
Activity [12]: 60.6 mg/dL
Activity [13]: 160.4 mg/dL
Activity [14]: 41 mg/dL
Activity [15]: 15 mg/dL

COc1ccc(Cl)cc1C(=O)NCCc1ccc(S(=O)(=O)NC(=O)NC2CCCCC2)cc1 [GLYBURIDE]
Activity [1]: 0.45 µM
Activity [2]: 207.6 g
Activity [3]: 39.7 mg/dL
Activity [4]: 50 mg/dL
Activity [5]: 45.7 mg/dL
Activity [6]: 102.5 mg/dL
Activity [7]: 98.1 mg/dL
Activity [8]: 115.1 mg/dL
Activity [9]: 250.5 g
Activity [10]: 20.1 mg/dL
Activity [11]: 240 mg/dL
Activity [12]: 58.6 mg/dL
Activity [13]: 161.6 mg/dL
Activity [14]: 36.4 mg/dL
Activity [15]: 14 mg/dL

O=C(/C=C/c1ccc(O)c(O)c1)O[C@H](Cc1ccc(O)c(O)c1)C(=O)O [ROSMARINIC ACID]
Activity [1]: 0.5 µM
Activity [2]: 206.8 g
Activity [3]: 41.2 mg/dL
Activity [4]: 51.3 mg/dL
Activity [5]: 50.2 mg/dL
Activity [6]: 100.5 mg/dL
Activity [7]: 100.1 mg/dL
Activity [8]: 97.3 mg/dL
Activity [9]: 249.5 g
Activity [10]: 21.7 mg/dL
Activity [11]: 244.1 mg/dL
Activity [12]: 57.2 mg/dL
Activity [13]: 157.6 mg/dL
Activity [14]: 42.3 mg/dL
Activity [15]: 14.2 mg/dL
